The values that follow come from article PMC8287944, “5-Fluorouracil blocks quorum-sensing of biofilm-embedded methicillin-resistant Staphylococcus aureus in mice” (Nucleic Acids Research, 2021).

Each structure is given as a SMILES string. Where only a bound is given, the exact number is not on record here.

The subject of series [1] is MRSA ATCC 43300. The series is described as follows: Murine tissue cage (foreign-body) infection model, prophylaxis. The class given is in vivo, Staphylococcus aureus. The following applies: C57BL/6 mice; for Effect on biofilm / adherent MRSA / Effect on planktonic MRSA infection: prophylactic treatment; for Effect on biofilm / adherent MRSA: explanted cages 2 days post-infection; for Effect on planktonic MRSA infection: tissue cage fluid 2 days post-infection. The protocol: To evaluate the prophylactic efficacy of 5-FU against MRSA infection, we used our murine model of foreign-body infection, which closely mimics human implant-associated infections. This model of foreign-body infection ([26],[27]) was established with the approval of the Kantonale Veterinaeramt Basel-Stadt, Switzerland (permit no. 1710). Experiments were conducted according to the regulations of Swiss veterinary law and performed in the animal house of the Department of Biomedicine, University Hospital Basel, Switzerland. Healthy wild-type female C57BL/6 mice at 13 weeks of age (JanvierLabs, France) kept under specific pathogen-free conditions (biosafety level 2) were anesthetized, followed by the subcutaneous implantation of sterile cylindrical Teflon tissue cages (8.5 × 1 × 30 mm; volume: 1.9 ml) with 130 regularly spaced holes (Angst + Pfister AG, Zurich, Switzerland). They were housed in a 12 hr light/dark cycle (light from 7 am to 7 pm) in a temperature-controlled room (24°C) with free access to regular mice chow and water. Mice were randomly assigned to experimental groups, which were not involved in previous procedures. The mice were randomized into groups, which were treated as follows: saline (untreated growth control; n = 7), saline with 5.2844 mg/kg DPD (n = 4), 50 mg/kg daptomycin (DAP) (Novartis, Basel, Switzerland) (n = 11), 10 mg/kg 5-FU with and without 50 mg/kg DAP (each n = 8), 40 mg/kg 5-FU with or without 50 mg/kg DAP (n = 16 and n = 13, respectively), 40 mg/kg 5-FU with 1 μM DPD (n = 6), or 40 mg/kg 5-FU with 50 mg/kg DAP and 5.2844 mg/kg DPD (n = 8). DAP was given intraperitoneally immediately before implantation, and 5-FU and DPD was given immediately after implantation directly into the lumen of the cage. Afterwards, the cages were infected with 965 CFU of MRSA 43300. At 2 days post-infection, tissue cage fluid was collected, and the planktonic bacterial load was evaluated by plating on blood agar plates. In additional, mice were sacrificed and the tissue cages were explanted under aseptic conditions. The explanted tissue cages were washed twice with phosphate-buffered saline followed by 30 s vortexing, sonication for 3 min at 130 W and another 30 s vortexing to release adherent bacteria from the biofilm. Quantification of adherent bacteria was performed by plating appropriated dilutions on blood agar plates. To determine the prevention rate, the presence of any re-growth of MRSA was examined by further incubation of the cage in tryptic soy broth (TSB) for 48 h at 37°C. MRSA re-growth represents therapy failure, and the prevention rate was defined as the percentage of cages without growth in each treatment group.
Figure 6. Prophylactic effect of 5-FU against MRSA ATCC 43300 in a murine tissue cage infection model. Read-outs were obtained two days after infection with 965 CFU/cage and treatment with saline, saline with 1 μM AI-2, 50 mg/kg daptomycin (DAP), 10 mg/kg 5-FU with or without 50 mg/kg DAP, 40 mg/kg 5-FU with or without 50 mg/kg DAP or 40 mg/kg 5-FU with 50 mg/kg DAP and 5.2844 mg/kg DPD, as indicated below the panels. (A) Effect on planktonic MRSA 43300 two days post-infection. (B) Effect on adherent MRSA after explantation and sonication. (C) Prevention rate. Values in (A) and (B) are median ± IQR and those in (C) are % ([…]; **P < 0.001; ****P < 0.0001; ns, not significant). TEXT PRINTED IN THE PICTURE: (C) DAP: prevention rate (%): 18 | (C) DAP + 5-FU (10): prevention rate (%): 75 | (C) DAP + 5-FU (40): prevention rate (%): 94 | (C) DAP + 5-FU (40) + DPD: prevention rate (%): 12.5 DOUBTS OF THE COPYIST ABOUT THIS PICTURE: Panel C, DAP, prevention rate: 18 or 16 (small print) / Panel C, DAP + 5-FU (10), prevention rate: 75 or 76 (small print) / Panel C: which treatment belongs to each bar was read from the small +/- grid under the plot, so the column alignment is not fully certain

Series [2] concerns MRSA ATCC 43300. Details: method as in PMID 21576433. The settings on record: implant-associated MRSA infection model; cited from earlier work.
The test system of series [3] is AI-2 production by HEK-293AI2 cells expressing MTAN and LuxS. Further details: method as in PMID 29739943. The settings on record: earlier proof-of-concept study; cited from earlier work.
The subject of series [4] is SE 1457 wild type. The series is described as follows: AI-2 activity of SE 1457 wild type. The class given is cell-based, Staphylococcus epidermidis. The following applies: 1 μM DPD with increasing 5-FU concentrations, 3 h. The protocol: (§1) To confirm that the phenotype could be restored, 1 μM synthetic (S)-4,5-dihydroxy-2,3-pentanedione (DPD) (Biosynth Carbosynth, Staad, Switzerland) was used. After 3 h under static conditions at 37°C, the supernatant was analysed for AI-2 activity with V. harveyi (MM32).
Supplementary Figure 4 | Bioactivity of 5-FU against Staphylococcus epidermidis (SE). a) Quorum-sensing-associated AI-2 activity of SE 1457 grown for 3 h in the presence of different 5-FU concentrations (note log scale). b) Reversing effect of 1 µM DPD on the AI-2-reducing action of 5-FU (dashed line indicates AI-2 baseline of SE 1457 without 5-FU). Values represent 3 biological replicates expressed as mean ± SD (*, p < 0.05; **, p < 0.01).

The subject of series [5] is MRSA ATCC 43300. The series is described as follows: AI-2 activity of MRSA ATCC 43300. It is filed as cell-based, Staphylococcus aureus. The settings on record: 1 μM DPD. The protocol:
as §1
Figure 4. Bioactivity of 5-FU against MRSA ATCC 43300. (A) Quorum sensing-associated AI-2 activity of MRSA 43300 grown for 3 h with different 5-FU concentrations. (B) Effect of different 5-FU concentrations on MRSA 43300 growth. (C) Interference with biofilm formation. (D) Effect on adherent MRSA 43300. Data points represent three biological replicates expressed as mean ± SD (**P < 0.01; ***P < 0.001; ****P < 0.0001).
Figure 5. Phenotype restoration with synthetic AI-2 supplementation. AI-2 activity of MRSA ATCC 43300 was evaluated with and without 1 μM DPD in the presence of different 5-FU concentrations. The dashed line indicates the baseline level of AI-2 of MRSA ATCC 43300 in the absence of 5-FU. Values represent 3 biological replicates expressed as mean ± SD (**P < 0.01; ****P < 0.0001).

As for `CCCCCCCCCC(=O)N[C@@H](Cc1c[nH]c2ccccc12)C(=O)N[C@H](CC(N)=O)C(=O)N[C@@H](CC(=O)O)C(=O)N[C@@H]1C(=O)NCC(=O)N[C@@H](CCCN)C(=O)N[C@@H](CC(=O)O)C(=O)N[C@H](C)C(=O)N[C@@H](CC(=O)O)C(=O)NCC(=O)N[C@H](CO)C(=O)N[C@@H]([C@H](C)CC(=O)O)C(=O)N[C@@H](CC(=O)c2ccccc2N)C(=O)O[C@@H]1C` [DAP, daptomycin], in series [1], the “Effect on biofilm / adherent MRSA” value is “neither 5-FU nor DAP alone was sufficient to contain the infection” and the “Effect on planktonic MRSA infection” value is given as “failed to clear planktonic MRSA infections”. In addition, the “Clearance rate of daptomycin used alone” value in series [2] is reported as under 20%.
Consider `Nc1ncnc2c([C@@H]3N[C@H](CO)[C@@H](O)[C@H]3O)c[nH]c12` [immunicillin-A], for which the “AI-2 production in HEK cells” value in series [3] is “significantly decreased”.
In the case of `CC(=O)C(=O)[C@@H](O)CO` [DPD, (S)-4,5-dihydroxy-2,3-pentanedione], the “Effect of DPD on prevention rate” value in series [1] (DPD co-administered with 5-FU and DAP) is on record as “decreased the prevention rate to the level observed for DAP monotherapy”. Besides, in series [1], the “Effect on biofilm / adherent MRSA” value was “reversed the 5-FU-dependent inhibition” and the “Effect on planktonic MRSA infection” value is “reversed the 5-FU-dependent inhibition”. Moreover, the “AI-2 activity of SE 1457 with DPD added to 5-FU” value in series [4] was “AI-2 activity returned almost to baseline”. For the same compound, in series [5], the “Baseline AI-2 activity of MRSA 43300” value is “little influence”. Besides, the “AI-2 activity of 5-FU-challenged MRSA supplemented with DPD” value in series [5] (MRSA ATCC 43300) is on record as “counteracted the effect of 5-FU”.
